Laboratory results as given in patent US20250313553A1, “ANNULATED 2-AMINO-3-CYANO THIOPHENES AND DERIVATIVES FOR THE TREATMENT OF CANCER” (Boehringer Ingelheim Int'l GmbH Corp., priority 2021, published 2025).
pIC50: −log10 of the molar value. In brackets after ≈: the same amount, converted by molar mass. Where two headings read alike, the source gives them in different places.

What was measured:
KRAS (G12D) and SOS1 = molecular target: T1, KRAS (G12D) and SOS1 (Homo sapiens, UniProt P01116, G12D); assay: KRAS::SOS1 AlphaScreen binding assay, KRAS G12D
T1 construct: KRAS (G12D) 1-169, N-terminal 6His-tag; 6His (N); purchased Xtal BioStructures, Inc. (KRAS G12D); Viva Biotech Ltd (SOS1)
Protocol: Low IC50 values in this assay setting are indicative of strong inhibition of protein-protein interaction between SOS1 and KRAS:
These assays measure the inhibitory effect of compounds on KRAS mutant protein-protein interactions using the Alpha Screen technology by Perkin Elmer.
For the chosen highest assay concentration of 100 μM, 150 nL of compound solution are transferred from a 10 mM DMSO compound stock solution. A series of eleven fivefold dilutions per compound are transferred to the assay plate, compound dilutions are tested in duplicates. DMSO are added as backfill to a total volume of 150 nL.
The assays run on a fully automated robotic system in a darkened room below 100 Lux. To 150 nl of compound dilution 10 μl of a mix including KRAS mutant protein, SOS1 (final assay concentrations see above) and GDP nucleotide (Sigma G7127; final assay concentration 10 μM) in assay buffer (1×PBS, 0.1% BSA, 0.05% Tween 20) are added into columns 1-24. After 30 minutes incubation time 5 μl of Alpha Screen bead mix in assay buffer are added into columns 1-23.
Plates are kept at room temperature in a darkened incubator. After an additional 60 minutes incubation time the signal is measured in a PerkinElmer Envision HTS Multilabel Reader using the AlphaScreen specs from PerkinElmer.
IC50 values are calculated and analyzed with Boehringer Ingelheim's MEGALAB IC50 application using a 4 parametric logistic model.

KRAS G12D Ba/F3 cells = KRAS G12D Ba/F3 cells (Homo sapiens, UniProt P01116, G12D, cells depend on it); assay: Ba/F3 proliferation assay, KRAS G12D; format: cell-based; conditions: 72 h, AlamarBlue, read-out: KRAS G12D Ba/F3 IC50
Protocol: (§1) To generate KRASG12-dependent Ba/F3 models, Ba/F3 cells are transduced with retroviruses containing vectors that harbor KRASG12 isoforms. Platinum-E cells (Cell Biolabs) are used for retrovirus packaging. Retrovirus is added to Ba/F3 cells. To ensure infection, 4 μg/mL polybrene is added and cells are spinfected. […] Cells with an infection efficiency of 10% to 20% are further cultivated and puromycin selection with 1 μg/mL is initiated. As a control, parental Ba/F3 cells are used to show selection status. Selection is considered successful when parental Ba/F3 cells cultures died. To evaluate the transforming potential of KRASG12 mutations, the growth medium is no longer supplemented with IL-3. Ba/F3 cells harboring the empty vector are used as a control. Approximately ten days before conducting the experiments, puromycin is left out.
(§2) All treatments are performed in technical duplicates. […] AlamarBlue™ (ThermoFisher), a viability stain, is added and fluorescence measured in the PerkinElmer Envision HTS Multilabel Reader. The raw data are imported into and analyzed with the Boehringer Ingelheim proprietary software MegaLab (curve fitting based on the program PRISM, GraphPad Inc.).

[1] = Metabolic (microsomal) stability assay, HLM; format: in vitro ADME; conditions: human liver microsomes, 1 μM, predicted clearance as percent of liver blood flow
Protocol: The metabolic degradation of the test compound is assayed at 37° C. with pooled liver microsomes (mouse (MLM), rat (RLM) or human (HLM)). The final incubation volume of 48 μL per time point contains TRIS buffer (pH 7.5; 0.1 M), magnesium chloride (6.5 mM), microsomal protein (0.5 mg/mL for mouse/rat, 1 mg/mL for human specimens) and the test compound at a final concentration of 1 μM. Following a short preincubation period at 37° C., the reactions are initiated by addition of 12 μL beta-nicotinamide adenine dinucleotide phosphate, reduced form (NADPH, 10 mM) and terminated by transferring an aliquot into solvent after different time points (0, 5, 15, 30, 60 min). Additionally, the NADPH-independent degradation is monitored in incubations without NADPH, terminated at the last time point by addition of acetonitrile. The quenched incubations are pelleted by centrifugation (4,000 rpm, 15 min). An aliquot of the supernatant is assayed by LC-MS/MS to quantify the concentration of parent compound in the individual samples.
In vitro intrinsic clearance (CLint, in vitro) is calculated from the time course of the disappearance of the test drug during the microsomal incubation. Each plot is fitted to the first-order elimination rate constant as C(t)=C0*exp(−ke*t), where C(t) and C0 are the concentration of unchanged test drug at incubation time t and that at preincubation and ke is the disappearance rate constant of the unchanged drug. Subsequently, CLint, in vitro (μL min^−1·amount protein) values are converted to predicted CLint, in vivo (mL min^−1·kg^−1) from incubation parameters according to the equation CLint, in vivo=CLint, in vitro×(incubation volume (ml)/amount protein (mg))×(amount protein (mg)/g liver tissue)×(liver weight/body wt.). For better across species comparison the predicted clearance is expressed as percent of the liver blood flow [% QH](mL min^−1·kg^−1) in the individual species. In general, high stability (corresponding to low % QH) of the compounds across species is desired.

KRAS G12C Ba/F3 cells = KRAS G12C Ba/F3 cells (Homo sapiens, UniProt P01116, G12C, cells depend on it); assay: Ba/F3 proliferation assay, KRAS G12C; format: cell-based; conditions: 72 h, AlamarBlue, read-out: KRAS G12C Ba/F3 IC50
Protocol: as §1, §2

[2] = Solubility measurement (DMSO solution precipitation method); format: physicochemical; conditions: aqueous buffer, kinetic from dmso stock
Protocol: The DMSO solution is diluted with an aqueous medium (McIlvaine buffer with pH=4.5 or 6.8) to a final concentration of 250 μM. After 24 h of shaking at ambient temperature a potentially formed precipitate is removed by filtration. The concentration of the test compound in the filtrate is determined by LC-UV methods by calibrating the signal to the signal of a reference solution with complete dissolution of the test compound in acetonitrile/water (1:1) with known concentration.

[3] = McIlvaine buffer pH 4.5, 24 h, read-out: solubility pH 4.5
[4] = McIlvaine buffer pH 6.8, 24 h, read-out: solubility pH 6.8

T1 sequence (P01116 1-169 isoform P01116-2 G12D): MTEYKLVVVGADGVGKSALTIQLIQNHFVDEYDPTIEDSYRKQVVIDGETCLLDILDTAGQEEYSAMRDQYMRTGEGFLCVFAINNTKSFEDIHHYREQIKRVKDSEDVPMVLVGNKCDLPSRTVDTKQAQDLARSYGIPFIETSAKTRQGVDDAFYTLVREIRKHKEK
Sequence of KRAS G12C Ba/F3 cells (P01116 whole entry G12C): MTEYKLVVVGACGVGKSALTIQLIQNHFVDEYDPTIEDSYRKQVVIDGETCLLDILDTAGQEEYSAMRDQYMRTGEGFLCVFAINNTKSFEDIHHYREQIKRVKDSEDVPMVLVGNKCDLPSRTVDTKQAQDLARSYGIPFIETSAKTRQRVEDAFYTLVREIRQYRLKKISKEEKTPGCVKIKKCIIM
Sequence of KRAS G12D Ba/F3 cells (P01116 whole entry G12D, canonical isoform): as the sequence (P01116 whole entry G12C) above, with C12D counted along it

With C[C@H]1CN(C)CCN1c1cccc(-c2noc([C@@]3(C)CCCc4sc(N)c(C#N)c43)n2)n1 [Example V-1] the pIC50 (KRAS (G12D) and SOS1) was 7.59, the GI50 (KRAS G12D Ba/F3 cells) was 961 nM and the “HLM QH” value [1] was 93%. It also gave a GI50 (KRAS G12C Ba/F3 cells) of 1270 nM, a solubility at 24 h [2, 3] greater than 110 µg/mL and a solubility at 24 h [2, 4] of 76 µg/mL (≈ 169 µM).
In the case of COCCCN1CCCN(c2nccc(-c3noc([C@@]4(C)CCCc5sc(N)c(C#N)c54)n3)n2)[C@@H](C)C1 [Example V-2], the pIC50 (KRAS (G12D) and SOS1) was 8.52, the GI50 (KRAS G12D Ba/F3 cells) was 256 nM and the “HLM QH” value [1] was greater than 95%. For the same compound, the GI50 (KRAS G12C Ba/F3 cells) was 371 nM, the solubility at 24 h [2, 3] was greater than 130 µg/mL and the solubility at 24 h [2, 4] was 100 µg/mL (≈ 191 µM).
For C[C@H]1CNCCN1c1nccc(-c2noc([C@@]3(C)CCCc4sc(N)c(C#N)c43)n2)n1 [Example V-4], the pIC50 (KRAS (G12D) and SOS1) was 7.82, the GI50 (KRAS G12D Ba/F3 cells) was 823 nM and the “HLM QH” value [1] was 83%. The GI50 (KRAS G12C Ba/F3 cells) was 831 nM, the solubility at 24 h [2, 3] was greater than 97 µg/mL and the solubility at 24 h [2, 4] was greater than 91 µg/mL.
In the case of C[C@H]1CN(C)CCCN1c1nccc(-c2noc([C@@]3(C)CCCc4sc(N)c(C#N)c43)n2)n1 [Example V-5], the pIC50 (KRAS (G12D) and SOS1) was 8.15, the GI50 (KRAS G12D Ba/F3 cells) was 293 nM and the “HLM QH” value [1] was 94%. The GI50 (KRAS G12C Ba/F3 cells) was 493 nM, the solubility at 24 h [2, 3] was greater than 100 µg/mL and the solubility at 24 h [2, 4] was 92 µg/mL (≈ 198 µM).
For C[C@H]1CNCCCN1c1nccc(-c2noc([C@@]3(C)CCCc4sc(N)c(C#N)c43)n2)n1 [Example V-6], the pIC50 (KRAS (G12D) and SOS1) was 7.92, the GI50 (KRAS G12D Ba/F3 cells) was 801 nM and the “HLM QH” value [1] was 77%. The GI50 (KRAS G12C Ba/F3 cells) was 811 nM, the solubility at 24 h [2, 3] was 88 µg/mL (≈ 195 µM) and the solubility at 24 h [2, 4] was 85 µg/mL (≈ 189 µM).
For C[C@H]1CN(C)CCN1c1nccc(-c2noc([C@@]3(C)CCCc4sc(N)c(C#N)c43)n2)n1 [Example V-7], the pIC50 (KRAS (G12D) and SOS1) was 7.80, the GI50 (KRAS G12D Ba/F3 cells) was 1090 nM and the “HLM QH” value [1] was 95%. The GI50 (KRAS G12C Ba/F3 cells) was 1240 nM.
With C[C@H](Oc1cccc(-c2noc([C@@]3(C)CCCc4sc(N)c(C#N)c43)n2)n1)[C@@H]1CCCN1C [Example V-8] the pIC50 (KRAS (G12D) and SOS1) was 8.15, the GI50 (KRAS G12D Ba/F3 cells) was 390 nM and the “HLM QH” value [1] was greater than 88%. The GI50 (KRAS G12C Ba/F3 cells) was 481 nM, the solubility at 24 h [2, 3] was greater than 96 µg/mL and the solubility at 24 h [2, 4] was greater than 95 µg/mL.
With CC(C)N1CCCN(c2nccc(-c3noc([C@@]4(C)CCCc5sc(N)c(C#N)c54)n3)n2)[C@@H](C)C1 [Example V-9] the pIC50 (KRAS (G12D) and SOS1) was 8.30, the GI50 (KRAS G12D Ba/F3 cells) was 51 nM and the “HLM QH” value [1] was greater than 88%. The GI50 (KRAS G12C Ba/F3 cells) was 64 nM, the solubility at 24 h [2, 3] was greater than 110 µg/mL and the solubility at 24 h [2, 4] was greater than 110 µg/mL.
For C[C@H](Oc1nccc(-c2noc([C@@]3(C)CCCc4sc(N)c(C#N)c43)n2)n1)[C@@H]1CCCN1C [Example V-10], the pIC50 (KRAS (G12D) and SOS1) was 8.30, the GI50 (KRAS G12D Ba/F3 cells) was 214 nM and the “HLM QH” value [1] was 87%. It also gave a GI50 (KRAS G12C Ba/F3 cells) of 291 nM, a solubility at 24 h [2, 3] greater than 110 µg/mL and a solubility at 24 h [2, 4] greater than 110 µg/mL.
For C[C@H](Oc1ccnc(-c2noc([C@@]3(C)CCCc4sc(N)c(C#N)c43)n2)n1)[C@@H]1CCCN1C [Example V-11], the “HLM QH” value [1] was 81%, the solubility at 24 h [2, 3] was greater than 116 µg/mL and the solubility at 24 h [2, 4] was greater than 116 µg/mL.
With C[C@H]1CN(C)CCN1c1nccc(-c2cc([C@@]3(C)CCCc4sc(N)c(C#N)c43)on2)n1 [Example V-27] the pIC50 (KRAS (G12D) and SOS1) was 8.10, the GI50 (KRAS G12D Ba/F3 cells) was 525 nM and the “HLM QH” value [1] was greater than 88%. For the same compound, the GI50 (KRAS G12C Ba/F3 cells) was 1430 nM, the solubility at 24 h [2, 3] was greater than 93 µg/mL and the solubility at 24 h [2, 4] was 18 µg/mL (≈ 40 µM).
